Consider 14 compounds from patent publication US5395947A, “Platinum(II) complex and processes for preparing the same” (Sunkyong Industries, Ltd., priority 1991, dated 1995).

In experiment [1] the test system is murine leukemia L1210 cells. Kind of experiment: Growth inhibition test on cultured murine leukemia L1210 cells. Particulars: 48 hours, 37° C., Trypan blue viability. Format: cell-based. On the procedure:
1. Growth inhibition test on cultured murine leukemia L1210 cells
Murine leukemia L1210 cells(1×10^5) were treated with various concentrations of the compounds prepared in the above examples in RPMI 1640 medium supplemented with 10% fetal calf serum, and cultured in a 5% CO2 humidified incubator at 37° C. for 48 hours. Their viability, estimated by staining with 0.17% Trypan blue, was compared with that of control cells cultured in the identical medium without the compounds.

In experiment [2] the test system is murine leukemia L1210. Kind of experiment: Antitumor activity test on murine leukemia L1210 in vivo. More on the design: species or system male BDF1 mice. The note with it: days 1, 5, 9. On the procedure: 2. Antitumor activity test on murine leukemia L1210 in vivo
Murine leukemia L1210 cells were maintained in the peritoneal cavities of 6-week-old male DBA/2 mice by weekly transfer in accordance with the procedure described in cancer chemotherapy Reports, Part 3, 3(2), 7 (1972). Specifically, 1×10^6 leukemia cells were inoculated into the abdominal cavities of 6-week-old male BDF1 mice weighing 21±3 g on day 0. Each treatment group consisted of seven mice. The test compounds were dissolved or suspended in 0.5% carboxymethyl cellulose(CMC)solution (in water) and were administered intraperitoneally on days 1, 5, and 9 relative to the tumor inoculation.
Thirty mice of 6-week-old male BDF1 weighing 21±3 g were used as the control group, which were injected with 0.5% CMC solution only in the same manner as above.
Anti-tumor activities of the compounds were evaluated in terms of the T/C % values calculated from the mean survival time(T) of the compound-treated group over that(C) of the control group. [formula]

Take `CC1OC(CN)C(CN)O1.CC1[O][Pt][O]C1=O` [Example 17, (L-lactato-O,O')[(4R,5R)-4,5-bis(aminomethyl)-2-methyl-1,3-dioxolane]platinum(II)]: the “IC50 (concentration required for 50% inhibition of growth)” value in experiment [1] turned out to be 0.44 µg/mL. Moreover, the “T/C (%)” value in experiment [2] (12.5 mg/kg i.p.) is 201%; in experiment [2] (25 mg/kg i.p.), 327%; in experiment [2] (50 mg/kg i.p.), 139%.

For `CC(C)C1O[C@H](C[NH-])[C@@H](C[NH-])O1.O=C([O-])CC(=O)[O-].[Pt+4]` (relative stereo) [Example 38, cis-malonato[(4R,5R)-4,5-bis(aminomethyl)-2-isopropyl-1,3-dioxolane]platinum(II)], the “IC50 (concentration required for 50% inhibition of growth)” value in experiment [1] amounted to 0.43 µg/mL. For the same compound, the “T/C (%)” value is recorded as 123% in experiment [2] (12.5 mg/kg i.p.), 148% in experiment [2] (25 mg/kg i.p.) and 220% in experiment [2] (50 mg/kg i.p.).

With `CC1[O][Pt][O]C1=O.NCC1OCOC1CN` [Example 13, (L-lactato-O,O')[(4R,5R)-4,5-bis(aminomethyl)-1,3-dioxolane]platinum(II)], the “IC50 (concentration required for 50% inhibition of growth)” value in experiment [1] was found to be 0.55 µg/mL. Further, the “T/C (%)” value in experiment [2] (12.5 mg/kg i.p.) was 178%; in experiment [2] (25 mg/kg i.p.), 207%; in experiment [2] (50 mg/kg i.p.) it was 92%.

Consider `O=C1CC(=O)[O][Pt-2]2([NH2+]CC3OC4(CCCC4)OC3C[NH2+]2)[O]1` [Example 39, cis-malonato[(4R,5R)-4,5-bis(aminomethyl)-1,3-dioxolane-2-spiro-1'-cyclopentane]platinum(II)], for which, in experiment [1], the “IC50 (concentration required for 50% inhibition of growth)” value was 0.31 µg/mL. Also, the “T/C (%)” value in experiment [2] (12.5 mg/kg i.p.) turned out to be 217%; in experiment [2] (25 mg/kg i.p.) it was 169%; in experiment [2] (50 mg/kg i.p.), 203%.

In the case of `CCC1OC2C[NH2+][Pt-2]3([NH2+]CC2O1)[O]C(=O)CC(=O)[O]3` [Example 35, cis-malonato[(4R,5R)-4,5-bis(aminomethyl)-2-ethyl-1,3-dioxolane]platinum(II)], in experiment [1], the “IC50 (concentration required for 50% inhibition of growth)” value was determined as 0.44 µg/mL. Also, the results for the “T/C (%)” value in experiment [2] (12.5 mg/kg i.p.), in experiment [2] (25 mg/kg i.p.) and in experiment [2] (50 mg/kg i.p.) were 144%, 204% and 245%, respectively.

As for `CC1(C)OC2C[NH2+][Pt-2]3([NH2+]CC2O1)[O]C(=O)CC(=O)[O]3` [Example 36, cis-malonato[(4R,5R)-4,5-bis(aminomethyl)-2,2-dimethyl-1,3-dioxolane]platinum(II)], the “IC50 (concentration required for 50% inhibition of growth)” value in experiment [1] worked out at 0.76 µg/mL. The “T/C (%)” value came to 133% in experiment [2] (12.5 mg/kg i.p.), 179% in experiment [2] (25 mg/kg i.p.) and 190% in experiment [2] (50 mg/kg i.p.).

Turning to `NC[C@H]1OCO[C@@H]1CN.O=C1C[O][Pt][O]1` [Example 1, (glycolato-O,O')[(4R,5R)-4,5-bis(aminomethyl)-1,3-dioxolane]platinum(II)], the “IC50 (concentration required for 50% inhibition of growth)” value in experiment [1] turned out to be 0.36 µg/mL. In addition, the “T/C (%)” value in experiment [2] (3.1 mg/kg i.p.) is on record as 95%; in experiment [2] (6.2 mg/kg i.p.) it was 132%; in experiment [2] (12.5 mg/kg i.p.) it was 137%; in experiment [2] (25 mg/kg i.p.), 160%; in experiment [2] (50 mg/kg i.p.), “toxic”.

Take `CC1(C)C(=O)[O][Pt-2]2([NH2+]CC3OC4(CCCC4)OC3C[NH2+]2)[O]C1=O` [Example 42, cis-dimethylmalonato[(4R,5R)-4,5-bis(aminomethyl)-1,3-dioxolane-2-spiro-1'-cyclopentane]platinum(II)]: the “IC50 (concentration required for 50% inhibition of growth)” value in experiment [1] is 0.54 µg/mL. The “T/C (%)” value in experiment [2] (25 mg/kg i.p.) turned out to be 172%; in experiment [2] (50 mg/kg i.p.), 160%; in experiment [2] (100 mg/kg i.p.), 150%.

With `CCC1OC2C[NH2+][Pt-2]3([NH2+]CC2O1)[O]C(=O)C(C)(C)C(=O)[O]3` [Example 40, cis-dimethylmalonato[(4R,5R)-4,5-bis(aminomethyl)-2-ethyl-1,3-dioxolane]platinum(II)], the “IC50 (concentration required for 50% inhibition of growth)” value in experiment [1] was 0.52 µg/mL. Moreover, the entries for the “T/C (%)” value in experiment [2] (25 mg/kg i.p.), in experiment [2] (50 mg/kg i.p.) and in experiment [2] (100 mg/kg i.p.) were 213%, 165% and 248%, respectively.

With `CC1(C)OC(CN)C(CN)O1.CC1[O][Pt][O]C1=O` [Example 14, (L-lactato-O,O')[(4R,5R)-4,5-bis(aminomethyl)-2,2-dimethyl-1,3-dioxolane]platinum(II)], the “IC50 (concentration required for 50% inhibition of growth)” value in experiment [1] is 0.46 µg/mL. For the same compound, the “T/C (%)” value in experiment [2] (12.5 mg/kg i.p.) is 213%; in experiment [2] (25 mg/kg i.p.) it was “toxic”; in experiment [2] (50 mg/kg i.p.) it was “toxic”.

In the case of `CC1OC2C[NH2+][Pt-2]3([NH2+]CC2O1)[O]C(=O)CC(=O)[O]3` [Example 34, cis-malonato[(4R,5R)-4,5-bis(aminomethyl)-2-methyl-1,3-dioxolane]platinum(II)], the “IC50 (concentration required for 50% inhibition of growth)” value in experiment [1] turned out to be 0.60 µg/mL. The figures for the “T/C (%)” value in experiment [2] (12.5 mg/kg i.p.), in experiment [2] (25 mg/kg i.p.) and in experiment [2] (50 mg/kg i.p.) were 140%, 156% and 241%, respectively.

Turning to `O=C1CC(=O)[O][Pt-2]2([NH2+]CC3OCOC3C[NH2+]2)[O]1` [Example 33, cis-malonato[(4R,5R)-4,5-bis(aminomethyl)-1,3-dioxolane]platinum(II)], the “IC50 (concentration required for 50% inhibition of growth)” value in experiment [1] is 0.50 µg/mL. For the same compound, the results for the “T/C (%)” value in experiment [2] (12.5 mg/kg i.p.), in experiment [2] (25 mg/kg i.p.) and in experiment [2] (50 mg/kg i.p.) were 146%, 133% and 276%, respectively.

`CC(C)C1OC2C[NH2+][Pt-2]3([NH2+]CC2O1)[O]C(=O)C(C)(C)C(=O)[O]3` [Example 41, cis-dimethylmalonato[(4R,5R)-4,5-bis(aminomethyl)-2-isopropyl-1,3-dioxolane]platinum(II)]: the “IC50 (concentration required for 50% inhibition of growth)” value in experiment [1] came out at 0.44 µg/mL. Moreover, the figures for the “T/C (%)” value in experiment [2] (25 mg/kg i.p.), in experiment [2] (50 mg/kg i.p.) and in experiment [2] (100 mg/kg i.p.) were 123%, 174% and 204%, respectively.

As to `CC1O[C@H](CN)[C@@H](CN)O1.O=C1C[O][Pt][O]1` [Example 5, (glycolato-O,O')[(4R,5R)-4,5-bis(aminomethyl)-2-methyl-1,3-dioxolane]platinum(II)], the “IC50 (concentration required for 50% inhibition of growth)” value in experiment [1] is 0.35 µg/mL. Moreover, the “T/C (%)” value in experiment [2] (3.1 mg/kg i.p.) is given as 104%; in experiment [2] (6.2 mg/kg i.p.), 136%; in experiment [2] (12.5 mg/kg i.p.), 154%; in experiment [2] (50 mg/kg i.p.), “toxic”.
